Measurements: US20230346769A1, “USE OF SIMPLE ACYCLIC POLYAMINES FOR THE TREATMENT OF DISEASES CAUSED BY PARASITES OF THE GENUS LEISHMANIA” (Universidad De Granada, priority 2020, published 2023)

Assays:
J774.2 macrophages = assay: Macrophage toxicity by flow cytometry; type: cell-based; conditions: for IC50: J774.2 macrophages, 72 h of culture
Description: Macrophage toxicity: this study used the experimental model designed by the group of inventors [I. Ramírez-Macías. et. al. J. Antimicrob. Chemother. 2011, 66(4): 813-819] wherein flow cytometry is used. Briefly, macrophages from line J774.2 (ECACC number 91051511, obtained from a BALB/c female […] tumour in 1968) were deposited in a steriling tube and centrifuged at 120 g for 5 minutes. The supernatant was discarded and the cells were resuspended in MEM + Glutamine medium with 20% SBF (fetal bovine serum). 1×10^4 cells per well were then deposited from a 24-well titration plate and incubated for 24-48 h at 37° C. in a humid atmosphere enriched with 5% CO2 to fix them. […] After 72 h of incubation, the samples were prepared for reading on a flow cytometer. Specifically, 100 µl of propidium iodide solution (100 µg/ml) was added to each well and incubated for 10 min at 28° C. in the dark. Subsequently, 100 µl/well of fluorescein diacetate (FDA) (Sigma Chemical Co) in solution (100 ng/mL) was added and incubation was repeated under the same conditions for 10 minutes. Cells were recovered by centrifugation at 400 g for 10 minutes and washing the precipitate with PBS. Finally, the results were analysed in a FACS Vantage flow cytometer (Becton Dickinson) taking into account that the cells with the plasma membrane intact emit green colour as the esterases act on the FDA, while the cells that have lost the integrity of the membrane and are not viable, emit in the range close to 580 nm by penetrating the propidium iodide by passive diffusion and specifically binding to the nucleic acids thereof. Thus, to calculate the percentage of viability, the number of dead cells compared to controls was taken into account.

[1] = Potentiometric titrations, protonation constants; type: physicochemical; conditions: 0.15 M NaCl, 298.1 K
Description: FEM measurements. Potentiometric titrations were conducted at 298.1 ± 0.1 K using 0.15 M NaCl as the support electrolyte. The experimental procedure (burette, potentiometer, cell, stirrer, microcomputer, etc.) has been fully described elsewhere (E. García-Spain, M.-J. Ballester, F. Lloret, J.M. Moratal, J. Faus and A. Bianchi, J. Chem. Soc. Dalton Trans. 1988, 101-104). The FEM data acquisition was performed with the PASAT software (M. Fontanelli and M. Micheloni, Program for the automatic control of the microburette and the acquisition of the electromotor force readings (PASAT). Minutes of the 1st Spanish-Italian Congress of Thermodynamics of Metal Complexes, Peñíscola, Castellón, Spain, 1990). The reference electrode was an Ag/AgCl electrode in saturated KCI solution. The glass electrode was calibrated as a hydrogen ion concentration probe by titration of previously standardised amounts of HCl with CO2 free NaOH solutions and the equivalent point determined by Gran’s method ((a) G. Gran, Analyst 1952, 77, 661 -671; (b) F.J. Rossotti and H. Rossotti, J. Chem. Educ. 1965, 42, 375-378) providing the standard potential, Eº’, and the ionic product of water (pKw = 13.73 (1)).
Hyperquad software was used to calculate protonation and stability constants (P. Gans, A. Sabatini and A. Vacca, Talanta 1996, 43, 1739-1753). The pH range investigated was 2.5-11.0 and the concentration of the ligands varied from 1×10^-3 to 5×10^-3 M. The different titration curves for each system (at least two) were treated as a single set or as separate curves without significant variations in the values of the stability constants. Finally, the data sets were fused and treated simultaneously to give the final protonation constants (Table 1). For compounds 1, 7 and 9, two protonation constants have been detected in the pH range studied with values ranging from 5.51 to 9.68 logarithmic units. For the remaining compounds, three protonation constants have been measured with values ranging from 10.08 to 2.25 logarithmic units. All compounds have charge +1 at the physiological pH value of 7.4.

[2] = tested on: L. infantum amastigote forms; assay: In vitro activity against intracellular (amastigote) forms in macrophages; type: cell-based, Leishmania infantum; conditions: for IC50: Leishmania infantum, Macrophage, 72 h; for Selectivity Index (SI) L. infantum Amastigote forms: IC50 of macrophages / IC50 of parasite form
Text: (§1) Methodology: Cultures of three Leishmania species, representative of the species causing each of the clinical forms of the disease, were used for these studies. Specifically, strains MCAN/ES/2001/UCM-1 O of L.infantum, isolated and characterised in Madrid from an infected dog; MHOM/BR/1975/M2904 of L.braziliensis, isolated in Brazil in a human case, and LCR-L 133 LRC of L.donovani. isolated in Jerusalem, Israel from a case of kala-azar […] (WHO Technical Reports Series 949. Geneva: WHO. March. The cultures of parasites come from an own collection which was prepared from a biobank project (Biobank and Characterisation Unit of Strains and Species of Trypanosomatids, Responsible for Human, Animal and Plant Pathologies, Cgl-2008-03687-E/Bos.), and are available on request.
(§2) For the study of the in vitro effect on intracellular forms of Leishmania, the experimental model designed by the group of the present inventors was used [Sánchez-Moreno. M. et al. Med. Chem. 2012, 55, 9900-9913; Sánchez-Moreno. M. et al. J. Antimicrob. Chemother. 2012, 67, 387-397]. The macrophages were detached from the culture flask where they were attached by dry blows. To do this, it was incubated in cold for 5 minutes and after that the flask was hit with the palm of the hand until the cells were detached from the flask. Then, they were passed to a 25 ml capacity steriling conical bottom flask (Deltalab) to centrifuge them at 120 g for 5 minutes, removing the supernatant and were counted in Neubauer’s chamber. Cells were suspended in RPMI medium at a concentration of 1×10^4 cells/well, then cultured in 24-well plates into which a 12 mm round slide had previously been placed into each well. For adherence, the cells were left 24 h at 37° C. in 5% CO2. Subsequently, the cells were infected in vitro by placing Leishmania cells at the rate of 10 parasites/macrophage according to [Sánchez-Moreno. M et al. Med. Chem. 2011, 54, 970-979]. […] The products were allowed to act for 72 hours of incubation.
(§3) After that time, the crystals were removed and fixed with methanol on a slide and allowed to dry, after which DPX microscopy mounting medium (Panreac®) was added to it. Once the preparations had been mounted, they were dyed with Giemsa by diluting Azur-Eosin-Methylene Blue solution according to Giemsa DC (Code 251338) with Sorensen buffer (1:10 dilution). The preparations were covered and allowed to colour for 20 minutes, after which they were washed with distilled water and then allowed to drain and dry vertically. Finally, the amastigote forms were counted with the aim of immersion in a total of 200 cells.

[3] = tested on: L. donovani amastigote forms; assay: as above; type: cell-based, Leishmania donovani; conditions: for Selectivity Index (SI) L. donvovani Amastigote forms: IC50 of macrophages / IC50 of parasite form; for IC50: Leishmania donovani, Macrophage, 72 h
Text: as §1, §2, §3

[4] = tested on: L. braziliensis amastigote forms; assay: as above; type: cell-based, Leishmania braziliensis; conditions: for Selectivity Index (SI) L. brazilensis Amastigote forms: IC50 of macrophages / IC50 of parasite form; for IC50: Leishmania braziliensis, Macrophage, 72 h
Text: as §1, §2, §3

| Compound | Toxicity in macrophages (IC50) compared with the reference compound (J774.2 macrophages) | IC50 (J774.2 macrophages) [µM] | Log β [1] | Logarithm of the protonation constant H2L+H ⇌ H3L [1] | Logarithm of the protonation constant H+L ⇌ HL [1] | Logarithm of the protonation constant HL+H ⇌ H2L [1] | IC50 [2] [µM] | Selectivity Index (SI) L. donvovani Amastigote forms [3] | IC50 [3] [µM] | Selectivity Index (SI) L. brazilensis Amastigote forms [4] | IC50 [4] [µM] | Selectivity Index (SI) L. infantum Amastigote forms [2] |
| --- | --- | --- | --- | --- | --- | --- | --- | --- | --- | --- | --- | --- |
| CN(C)CCNCc1cccnc1 [Compound 5, 1-{3-pyridyl}-5-methyl-2,5-diazahexane] | much lower | 230 ± 16.9 | 17.98(1) | 3.16(1) | 9.18(1) | 5.63(1) | 10 ± 0.8 | 13 | 17.6 ± 0.7 | 11 | 20 ± 2 | – |
| CNCCNCc1cccnc1 [Compound 2, 1-{3-pyridyl)-2,5-diazahexane] | low toxicities | 310 ± 11.5 | 18.29(3) | 2.95(2) | 9.653(5) | 5.687(5) | 8.4 ± 0.5 | 21 | 14.4 ± 0.1 | 20 | 15.8 ± 0.5 | – |
| CNCCNCc1ccnc2ccccc12 [Compound 10] | – | 164 ± 10 | 17.99(1) | 3.183(8) | 9.512(6) | 5.297(7) | 18.7 ± 1.5 | 6 | 26.8 ± 2.1 | 8 | 21.7 ± 2.3 | 9 |
| CN(C)CCNCc1ccnc2ccccc12 [Compound 8, 1-{4-quinolyl)-5-methyl-2,5-diazahexane] | – | 22.5 ± 0.6 | 18.99(2) | 3.32(1) | 10.08(1) | 5.59(1) | 11.5 ± 0.8 | 2 | 10.6 ± 0.6 | 1 | 16.8 ± 1.1 | 2 |
